The values below come from paper PMC6271731, “Multitarget Molecular Hybrids of Cinnamic Acids” (Molecules, 2014).

Marks after values point to notes of the source that are not given here.

The test system of series [1] is acetic acid-induced writhing. As to the kind of experiment: Antinociceptive screen (writhing test). It counts as in vivo, Wistar rats. The settings on record: i.p. 30 min before 0.6% acetic acid, writhes counted over 30 min.
Series [2] in a line: In vitro stability under acidic and basic conditions. It counts as physicochemical. As to conditions: pH 3, 4.5 and 9, 37 °C, 24 h. Here is the method: In an attempt to mimic the acidic/basic conditions in the gastrointestinal route, measurements at pH: (i) 3; (ii) 4.5 and (iii) 9 were performed. The pH value was adjusted with the appropriate buffer (CH3COONa/CH3COOH) to 4.5 and 3 and Tris to pH 9. 20 μL of the tested compounds in DMSO and buffer 980 μL (4.5 or 3 pH) incubated at 37 °C for 24 h. The stability of the compounds was monitored chromatographically after 3 and 9 h. After 24 h, the incubated solution (in all cases) was treated with chloroform (1 mL). The organic layer was analyzed spectrophotometrically.

With `CC(=O)Nc1ccc(OC(=O)/C=C/c2cccc(Oc3ccccc3)c2)cc1` [Compound 2a, (E)-4-Acetamidophenyl 3-(3-phenoxyphenyl)acrylate], the “% ANA (in vivo analgesic-antinociceptive activity)” value in series [1] (0.01 mmol/0.1 kg) is 91 ** %. The inhibition in vivo at 0.01 mmol/0.1 kg in series [1] (Rattus norvegicus, ip, 0.5 h, read-out: % ANA (in vivo analgesic-antinociceptive activity)) came out at 91%. Also, the “stability under acidic and basic conditions” value in series [2] was “confirmed the stability”.
